Laboratory results from article PMC5463734, “Structure-guided optimization of quinoline inhibitors of Plasmodium N-myristoyltransferase” (MedChemComm, 2016).
Several values for one entry are separate records, joined by “and”; a condition that tells them apart may be missing. Equal entries are not always repeated. Where two headings read alike, the source gives them in different places.

Experiments:
[1] = molecular target: T1, recombinant P. vivax NMT (PvNMT) (Plasmodium vivax, UniProt A5K1A2); parameters: method as in PMID 22439843; conditions: recombinant enzyme; read-out: Ki app PvNMT; cited from earlier work
T1 sequence (A5K1A2 1-410): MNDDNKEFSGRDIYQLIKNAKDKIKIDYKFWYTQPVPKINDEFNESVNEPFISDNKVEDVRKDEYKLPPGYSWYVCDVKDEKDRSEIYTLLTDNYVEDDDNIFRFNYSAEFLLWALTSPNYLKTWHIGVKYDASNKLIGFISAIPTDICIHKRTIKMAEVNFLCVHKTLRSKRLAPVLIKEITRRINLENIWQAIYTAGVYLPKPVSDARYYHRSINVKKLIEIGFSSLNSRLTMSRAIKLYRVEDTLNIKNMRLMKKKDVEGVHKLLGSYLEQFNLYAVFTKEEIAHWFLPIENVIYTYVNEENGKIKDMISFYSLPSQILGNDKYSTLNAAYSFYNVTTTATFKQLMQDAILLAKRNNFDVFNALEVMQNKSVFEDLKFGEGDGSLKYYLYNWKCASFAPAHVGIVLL

[2] = stability in phosphate buffered solutions used for enzymatic assay; assay type: physicochemical
Text: It is well known that 2-cyanoethylthioethers can be cleaved in the presence of weak bases such as ammonia through a retro-Michael reaction.[27]

[3] = molecular target: T2, recombinant H. sapiens NMT isoform 1 (HsNMT1) (Homo sapiens, UniProt P30419); assay: fluorogenic 96-well plate enzymatic assay for HsNMT1 activity; assay type: biochemical; conditions: for Ki: recombinant enzyme, mean ± SD from duplicates, Ki app from IC50 by Cheng-Prusoff
T2 sequence (P30419 1-496): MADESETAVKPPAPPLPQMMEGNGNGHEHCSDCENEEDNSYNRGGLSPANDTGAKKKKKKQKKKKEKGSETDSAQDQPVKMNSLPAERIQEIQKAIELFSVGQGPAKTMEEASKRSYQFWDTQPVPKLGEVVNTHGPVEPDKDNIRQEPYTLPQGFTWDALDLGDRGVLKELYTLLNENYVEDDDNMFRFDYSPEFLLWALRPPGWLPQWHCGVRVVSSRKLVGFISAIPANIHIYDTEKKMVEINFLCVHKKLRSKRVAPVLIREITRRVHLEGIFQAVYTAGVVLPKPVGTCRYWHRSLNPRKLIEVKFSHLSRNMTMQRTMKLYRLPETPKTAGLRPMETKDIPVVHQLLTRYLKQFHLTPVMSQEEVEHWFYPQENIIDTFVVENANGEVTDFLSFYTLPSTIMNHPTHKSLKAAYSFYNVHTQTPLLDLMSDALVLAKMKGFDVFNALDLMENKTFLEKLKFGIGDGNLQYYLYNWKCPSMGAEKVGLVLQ
Procedure: (§1) Final compounds were tested using a previously described fluorogenic 96-well plate assay for PvNMT,2 PfNMT3 and […]
(§2) nonlinear regression fitting using GraFit 7.0 (Erithacus Software Ltd., U.K.). Apparent inhibition constants, Kiapp, were calculated from experimental IC50 using Cheng-Prussof equation.5

[4] = molecular target: T3, recombinant P. falciparum NMT (PfNMT) (Plasmodium falciparum, UniProt Q9U419); assay: fluorogenic 96-well plate enzymatic assay for PfNMT activity; assay type: biochemical; conditions: for totally inactive on PfNMT up to: highest concentration without activity; for Ki: recombinant enzyme, mean ± SD from duplicates, Ki app from IC50 by Cheng-Prusoff
T3 sequence (Q9U419 1-410): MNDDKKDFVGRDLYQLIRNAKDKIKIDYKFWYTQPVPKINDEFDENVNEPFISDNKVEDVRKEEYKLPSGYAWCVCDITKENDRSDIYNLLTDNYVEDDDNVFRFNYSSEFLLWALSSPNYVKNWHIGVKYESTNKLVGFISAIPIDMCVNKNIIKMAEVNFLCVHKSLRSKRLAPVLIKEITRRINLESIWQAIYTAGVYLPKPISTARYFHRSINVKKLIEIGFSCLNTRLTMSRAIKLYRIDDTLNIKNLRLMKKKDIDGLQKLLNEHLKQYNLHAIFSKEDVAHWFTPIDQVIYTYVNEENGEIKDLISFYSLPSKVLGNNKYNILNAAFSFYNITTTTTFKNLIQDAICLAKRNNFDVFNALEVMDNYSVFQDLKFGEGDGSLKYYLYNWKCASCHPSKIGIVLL
Procedure: (§3) The only residue in the inhibitor-binding pocket that differs between these NMTs is Tyr334 (Pv numbering), which is replaced by a phenylalanine in PfNMT.
as §1, §2

[5] = molecular target: T1, recombinant P. vivax NMT (PvNMT); assay: biochemical; assay type: biochemical; conditions: for LipE: lipophilic efficiency, LipE = –log(Ki) – clog P, based on PvNMT data; for Ki: recombinant enzyme, mean ± SD from duplicates, Ki app from IC50 by Cheng-Prusoff
Procedure: as §3, §1, §2

[6] = molecular target: T4, recombinant H. sapiens NMT isoform 2 (HsNMT2) (Homo sapiens, UniProt O60551); assay: fluorogenic 96-well plate enzymatic assay for HsNMT2 activity; assay type: biochemical; conditions: for Ki: recombinant enzyme, mean ± SD from duplicates, Ki app from IC50 by Cheng-Prusoff
T4 sequence (O60551 1-498): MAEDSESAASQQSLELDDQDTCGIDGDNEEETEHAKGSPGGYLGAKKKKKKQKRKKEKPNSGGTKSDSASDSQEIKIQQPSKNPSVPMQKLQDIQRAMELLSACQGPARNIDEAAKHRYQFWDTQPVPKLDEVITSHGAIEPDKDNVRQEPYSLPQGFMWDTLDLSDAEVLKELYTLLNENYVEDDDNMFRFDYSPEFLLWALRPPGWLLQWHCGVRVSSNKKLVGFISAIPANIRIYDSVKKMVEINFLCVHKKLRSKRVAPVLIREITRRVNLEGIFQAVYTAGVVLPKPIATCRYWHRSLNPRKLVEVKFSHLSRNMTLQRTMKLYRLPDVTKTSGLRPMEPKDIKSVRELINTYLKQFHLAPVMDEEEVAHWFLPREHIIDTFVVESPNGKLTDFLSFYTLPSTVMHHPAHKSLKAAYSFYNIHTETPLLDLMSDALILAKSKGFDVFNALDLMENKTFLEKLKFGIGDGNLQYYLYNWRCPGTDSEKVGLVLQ
Procedure: as §1, §2

[7] = solubility in assay buffer; conditions: could not be evaluated

SMILES	Ki [3] [nM]	Ki ([4]; read-out: Ki app PfNMT) [nM]	LipE [5]	Ki ([5]; read-out: Ki app PvNMT) [nM]	Ki [6] [nM]	further results
CCOC(=O)c1cnc2ccc(OC)cc2c1SCCC#N [Compound 1, ethyl 4-((2-cyanoethyl)thio)-6-methoxyquinoline-3-carboxylate]	–	–	–	–	–	Ki [1]: 4700 nM and 4740 nM; stability in phosphate buffered solutions [2]: fully stable
CCOC(=O)c1cnc2ccc(OCc3ccccc3)cc2c1SCCC#N [Compound 4]	> 10000	> 10000	1.90	550 ± 60	–	totally inactive on PfNMT up to [4]: > 100 µM; fold improvement in activity compared to the original methoxy compound ([5]; 6-benzyloxy vs 6-methoxy compound 1): 8 fold
CCCSc1c(C(=O)OCC)cnc2ccc(OCc3ccccc3)cc12 [Compound 5]	3360 ± 370	1100 ± 80	0.22	2080 ± 140	> 10000	fold improvement in activity versus PfNMT ([4]; n-propyl thioether vs 2-cyanoethyl thioether): > 10 fold
CCOC(=O)c1cnc2ccc(OCc3ccccc3)cc2c1SC(C)C [Compound 6]	4840 ± 640	–	–	–	> 10000	Ki ([4]; Ki app PfNMT): 1990 ± 300 nM
CCOC(=O)c1cnc2ccc(OCc3ccccc3)cc2c1SCC [Compound 7]	1560 ± 220	670 ± 40	1.42	440 ± 50	4230 ± 530	–
CCOC(=O)c1cnc2ccc(OCc3ccccc3)cc2c1SC [Compound 8]	–	5900 ± 600	0.69	4140 ± 410	–	–
CCOC(=O)c1cnc2ccc(OCc3ccccc3)cc2c1[S+]([O-])CC (stereo not drawn) [Compound 9]	3600 ± 300	5650 ± 1240	2.46	1750 ± 120	> 10000	–
CCOC(=O)c1cnc2ccc(OCc3ccccc3)cc2c1S(=O)(=O)CC [Compound 10]	> 10000	> 10000	2.34	1780 ± 470	> 10000	–
CCSc1c(CO)cnc2ccc(OCc3ccccc3)cc12 [Compound 11]	> 10000	> 10000	1.57	4190 ± 550	> 10000	–
CCOCc1cnc2ccc(OCc3ccccc3)cc2c1SCC [Compound 12]	> 10000	2690 ± 510	0.72	2920 ± 150	> 10000	–
CCNC(=O)c1cnc2ccc(OCc3ccccc3)cc2c1SCC [Compound 13]	1050 ± 115	960 ± 110	2.46	340 ± 50	> 10000	selectivity versus HsNMT1 ([3]; relative to PvNMT): 3 fold; selectivity versus HsNMT2 ([6]; relative to PvNMT): 30 fold
CCSc1c(C(=O)N(CC)CC)cnc2ccc(OCc3ccccc3)cc12 [Compound 14]	1020 ± 130	940 ± 90	1.80	410 ± 60	3530 ± 400	–
CCSc1c(C(=O)N2CCCC2)cnc2ccc(OCc3ccccc3)cc12 [Compound 15]	1360 ± 210	1520 ± 290	1.74	960 ± 130	> 10000	–
CCSc1c(C(=O)Nc2ccccc2)cnc2ccc(OCc3ccccc3)cc12 [Compound 16]	–	–	–	–	–	solubility [7]: poorly soluble
CCSc1c(C(=O)Nc2nccs2)cnc2ccc(OCc3ccccc3)cc12 [Compound 17]	–	–	–	–	–	solubility [7]: poorly soluble
CCSc1c(C(=O)NCCO)cnc2ccc(OCc3ccccc3)cc12 [Compound 18]	> 10000	8000 ± 3980	2.36	2840 ± 380	> 10000	–
CCSc1c(C(=O)N2CCOCC2)cnc2ccc(OCc3ccccc3)cc12 [Compound 19]	–	–	–	–	590 ± 50	Ki ([4]; Ki app PfNMT): 330 ± 20 nM; Ki ([5]; Ki app PvNMT): 200 ± 20 nM
CCOC(=O)c1cnc2ccc(OCc3ccc(NCCN)nc3)cc2c1SCC [Compound 24]	50 ± 10	1250 ± 80	3.57	280 ± 20	410 ± 70	–
CCCCc1c(C)nc2ccc(OC)cc2c1SCCC#N [MRT00057965, 3-butyl-4-((2-cyanoethyl)thio)-6-methoxy-2-methylquinoline]	–	–	–	–	–	totally inactive on PfNMT up to [4]: > 100 µM
